Results as given in ChEMBL document CHEMBL5143572, “Synthesis and evaluation of new potential anti-pseudo-allergic agents” (Bioorg Med Chem Lett, 2022).
Active and inactive are the calls of the source. The calls are words filed in the database; no cut-off is given here.

How the values were obtained:
LAD2 [1] = experiment: Antiallergic activity in human LAD2 cells assessed as inhibition of C48/80-induced beta-hexosaminidase release; format: functional, cell-based; conditions: dose 0.1-100 µM
LAD2 [2] = experiment: Cytotoxicity against human LAD2 cells at 0.1 to 100 uM measured after 24 hrs; format: toxicity, cell-based; conditions: lad2, 24 h, dose 0.1-100 µM
LAD2 [3] = experiment: Antiallergic activity in human LAD2 cells assessed as inhibition of C48/80-induced histamine release; format: functional, cell-based; conditions: dose 0.1-100 µM, DDE = dose-dependent effect
[4] = molecular target: T1, Mas-related G-protein coupled receptor member X2 (Homo sapiens) (UniProt Q96LB1); experiment: Antagonist activity at MRGPRX2 (unknown origin) expressed in HEK293 cells assessed as inhibition of C48/80-induced Ca2+- mobilization; format: functional, cell-based; conditions: filed as antagonist, dose 0.1-100 µM, DDE = dose-dependent effect
T1 sequence (whole entry): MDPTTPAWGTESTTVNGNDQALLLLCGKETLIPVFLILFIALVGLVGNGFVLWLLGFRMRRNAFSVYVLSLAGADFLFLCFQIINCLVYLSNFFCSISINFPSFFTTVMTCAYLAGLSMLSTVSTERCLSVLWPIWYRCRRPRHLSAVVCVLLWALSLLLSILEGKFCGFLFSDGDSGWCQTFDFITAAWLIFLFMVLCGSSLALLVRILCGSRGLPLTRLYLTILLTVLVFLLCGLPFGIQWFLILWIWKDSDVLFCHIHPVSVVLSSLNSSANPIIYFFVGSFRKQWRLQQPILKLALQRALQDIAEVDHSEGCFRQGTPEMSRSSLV

## FC(F)(F)c1ccc(/C=C/c2nc(COc3ccc(CCCCn4ccnn4)cc3)co2)cc1
LAD2 [1]
  inhibition: Active

## O=C(Nc1ccc(C(F)(F)F)cc1)Nc1nc(COc2ccc(CCCCn3ccnn3)cc2)co1
LAD2 [2]
  Activity: Non-Toxic
LAD2 [1]; DDE = dose-dependent effect
  inhibition: Dde
LAD2 [3]
  inhibition: Dde
[4]
  inhibition: Dde

## O=C(Nc1ccc(Sc2ccc3c(=O)[nH]cnc3c2)cc1)Nc1ccc(Cl)c(C(F)(F)F)c1
LAD2 [1]
  inhibition: Active

## O=C(Nc1ccc(Cl)c(C(F)(F)F)c1)Nc1nc(COc2ccc(CCCCn3ccnn3)cc2)co1
LAD2 [2]
  Activity: Non-Toxic
LAD2 [1]; DDE = dose-dependent effect
  inhibition: Dde
LAD2 [3]
  inhibition: Dde
[4]
  inhibition: Dde
